This is an account of results in article PMC10001324, “Differential Effects of Nonsteroidal Anti-Inflammatory Drugs in an In Vitro Model of Human Leaky Gut” (Cells, 2023).

≈ marks a conversion by molar mass, not a printed value. Where two headings read alike, the source gives them in different places.

For series [1], the system named is Caco-2 cells. The note with it: effect on EtOH-induced increase; Caco-2, 1 mM for 72 h. Here is the method: OxyBlot protein oxidation detection kits (S7150, Millipore Company, Burlington, MA, USA) were used according to the manufacturer’s instructions. Briefly, cells were plated (seeding density 3 × 10^5 cells/cm^2) in a complete medium in a T75 flask and cultured for 20 days post-confluence. After 20 days, cells were exposed for 24 h to EtOH (6%) and for 72 h to NSAIDs (1 mM). OxyBlot assay was then performed as previously reported.

For series [2], the system named is Glutathione-S-transferase (GST). To be noted: effect on EtOH-induced decrease; Caco-2, 1 mM for 72 h.
Series [3] has as its system Caco-2 cells. In words: Morphological analysis of the intestinal barrier (ZO-1 immunofluorescence, phalloidin staining). It is filed as cell-based, human. The note with it: Caco-2, 6% EtOH 24 h then 1 mM for 72 h. Here is the method: Cells were then fixed with 3.7% paraformaldehyde (Sigma, USA) in PBS for 15 min at room temperature and then permeabilized with 0.1% Triton X-100 (Sigma, USA) in PBS for 5 min. After further washes with PBS, phalloidin 1000X (ab176753, Abcam, UK) was diluted to 1X in 1% BSA in PBS, and the cells were incubated for 90 min at room temperature (according to the manufacturer’s instructions). Finally, coverslips were mounted on microscope slides with Vectashield Mounting Medium H2000 with DAPI and cells were observed using a Leica SP5 confocal microscope. For each condition, n = 3, 5 fields/slide were analyzed. A representative picture is shown.
Cells were then treated with 6% EtOH (24 h) and then with 1 mM NSAIDs (72 h). Cells were fixed in 3.7% paraformaldehyde in PBS for 15 min at room temperature, rinsed with PBS, and permeabilized with 0.1% Triton X-100 in PBS for 5 min. After further washes with PBS, cells were incubated for 30 min with BSA 4% in PBS and then incubated overnight at 4 °C with the primary antibody zonulin-1 (ZO-1) (33-910, Thermo Scientific, MA, USA rabbit anti-human, dilution 1:100). […] Finally, coverslips were mounted on microscope slides with Vectashield Mounting Medium with DAPI and cells were observed using a Leica SP5 confocal microscope.

A further series relates to IKBα/4-HNE adducts. Description: Immunoprecipitation for IKBα, IKBα/4-HNE adducts, Caco-2. It is filed as cell-based, human. The note with it: Caco-2, EtOH then 1 mM for 72 h. As to the method:
The columns were incubated overnight at 4 °C. […] Values were given as RU.

The subject of a further series is 4-HNE. Description: 4-HNE levels by WB, Caco-2. Type of series: cell-based, human. The note with it: Caco-2, 6% EtOH 24 h then 1 mM for 72 h.
For another series, the system named is COX-1. The note with it: human blood, cited from earlier work.
For series [4], the system named is Caco-2 cells. Description: Transepithelial electrical resistance (TEER), EtOH-stressed Caco-2. Type of series: cell-based, human. The note with it: Caco-2 20 DIV, 6% EtOH 24 h then 0.25, 0.5, 1 mM for 72 h.
A short description of series [5]: Log P / LogD7.4 by pH-metric titration in octanol (SiriusT3). It is filed as physicochemical. The note with it: for logD: pH 7.4; for logP: SiriusT3, octanol. As to the method:
(§1) The major physicochemical properties of the drugs were determined using the SiriusT3 apparatus (Sirius Analytical Instruments Ltd., East Sussex, UK) equipped with an Ag/AgCl double junction reference pH electrode, a Sirius D-PAS spectrometer, and a turbidity sensing device. The pH electrode was calibrated titrimetrically in the pH range 1.8–12.2 as previously described. The pKas were defined by the potentiometric method by pH-metric titration. The powder (around 0.5 mg) was diluted in 1.5 mL of ISA water and the titration was analyzed in triplicate in the pH range 2.0–12.0.

The nature of another series: physchem. The note with it: water. As to the method:
as §1

A further series relates to IL-8. To be noted: Caco-2, EtOH exposure 6% for 24 h; control 82.4 ± 0.44 pg/mL.
In a further series the test system is TNF-α. The note with it: Caco-2, EtOH exposure 6% for 24 h; control 10.8 ± 1.3 pg/mL.
Series [6] has as its system Caco-2 cells. In words: DCFDA cellular ROS assay, Caco-2. To be noted: compared to EtOH challenge alone; Caco-2, 1 mM for 72 h. It is filed as cell-based, human.
The next series concerns COX-2. The note with it: human blood, cited from earlier work.
For a further series, the system named is IKBα. In words: IKBα protein levels by western blotting, Caco-2. Type of series: cell-based, human. To be noted: Caco-2, 6% EtOH 24 h then 1 mM for 72 h. A general note: In western blotting, separated proteins are transferred to a membrane and probed.
The next series deals with NFkB. In words: NFkB translocation in LPS-activated RAW 264.7 macrophages. Type of series: cell-based, murine. To be noted: 1 mM for 24 h. Here is the method:
The murine macrophage cell line RAW 264.7 (ATCC TIB-71) was purchased from ATCC, and cells were cultured as indicated by the manufacturer. For the experiment, cells were seeded 10,000/cm^2 for 24 h, starved for 4 h (w/o serum), and activated with lipopolysaccharides (LPS 10 ng/mL for 24 h; Sigma Aldrich, St. Louis, MO, USA). […] RAW 264.7 cells were seeded at 10,000 cells/cm^2 and activated with LPS. […] For both Caco-2 and RAW 264.7 cells, the procedure of extraction of different components was performed as previously reported. The protein fraction extracts were separated on a 10% SDS–polyacrylamide gel and electroblotted onto PVDF. Nonspecific binding sites were blocked by EBB for 5 min. Membranes were then incubated overnight at 4 °C with anti-NFκB and anti-PPARγ. As secondary antibodies, peroxidase-conjugated anti-rabbit, and anti-mouse were used. Bands were detected using Alliance 4.7 UVITEC (Cambridge, UK) and analyzed by ImageJ software. The relative densities of the immunoreactive bands were normalized to anti-Actin or anti-laminin using ImageJ software. Values were given as RU.

The nature of series [7]: Caco-2 permeability assay (Papp, Ap-Bl). It is filed as in vitro ADME. The note with it: human, Caco-2, apical to basolateral. Here is the method: Papp is the apparent permeability of a compound across a membrane. For drug transport studies, cells were seeded at a density of 3 × 10^5 cells/cm^2 on permeable support with 0.4 µm Transparent PET Membrane in complete medium, cultured and treated as described above.
Drug transport across Caco-2 monolayers was studied in the Ap–Bl direction, fresh drug and provided to the apical side (donor compartment), and the fresh vehicle was provided to the basolateral side (receiver compartment). For each solution, aliquots of 500 μL were collected immediately after the addition of compounds to the cells (the “time zero”), and after appropriate dilution, an HPLC analysis was performed. At the end of the experiment, after 120 min of incubation, 500 μL of the donor chamber solution was diluted and an HPLC analysis was performed.

The test system of a further series is COX. The note with it: cited from earlier work.

On to `NCCCC[C@H](N)C(=O)O` [Lys, L-lysine], for which the “levels of oxidized proteins (OxyBlot)” value with Caco-2 cells [1] is “did not exhibit direct antioxidant effects”. Also, in [2], the GST activity result is given as “not observed”. Moreover, the “intestinal barrier integrity (ZO-1 and phalloidin staining)” value with Caco-2 cells [3] is given as “did not show the ability to protect Caco-2 cells”. In the series on IKBα/4-HNE adducts, the IKBα/4-HNE adduct formation entry is recorded as “not”. Besides, in the series with 4-HNE, the 4-HNE levels entry is “not”.
A word on the IC50: it is the concentration that gives 50% inhibition. As a reminder, the logD is the decadic logarithm of the distribution of all forms, ionised or not, between an organic phase and buffer at a given pH. One may read the logP as the decadic logarithm of the partition coefficient of the neutral form, usually between octanol and water. Read a low logP as a more hydrophilic compound. As usually defined, the solubility is how much of the substance goes into solution per volume. Read a low solubility as a poorly soluble substance. Take `CC(C)Cc1ccc(C(C)C(=O)O)cc1` (stereo not drawn) [Ibuprofen]: in the series with COX-1 (ref 23), the concentration for half-maximal inhibition (IC50) was […]. Besides, the IC50 with COX-1 (ref 24) was […]. Moreover, in the series on Caco-2 cells [4], the TEER entry is “partial but significant protective activity”. In [5] (octanol/ISA water), this compound displayed a logD of 0.96 and a logP of 3.91 ± 0.01. Also, the solubility in “physchem” stood at 49 µg/mL (≈ 238 µM).
For `CCO` [EtOH, Ethanol], in the series with IL-8, the “Secreted IL-8 levels” value was determined as 283.9 ± 4.1 pg/mL. For the same compound, the “Secreted TNF-α levels” value in the series on TNF-α is recorded as 20.9 ± 0.7 pg/mL.
With `CC(C(=O)O)c1cccc(C(=O)c2ccccc2)c1` (stereo not drawn) [Ketoprofen, ketoprofen], the IC50 in the series on COX-1 (ref 23) is 0.047 µM; with COX-1 (ref 24), 0.11 µM; in the series on COX-2 (ref 23), 2.9 µM; in the series with COX-2 (ref 24), 0.88 µM. Moreover, in the series on Caco-2 cells [3], the “intestinal barrier integrity (ZO-1 and phalloidin staining)” value is given as “did not show the ability to protect Caco-2 cells”. Besides, in the series on IKBα/4-HNE adducts, the IKBα/4-HNE adduct formation entry is recorded as “reduced the formation of the adducts”. The “DCFDA fluorescence intensity (cellular ROS)” value in the series on Caco-2 cells [6] is on record as “more substantial”. The compound also yielded a logP in series [5] (octanol/ISA water) of 3.05 ± 0.01. In [5], this compound returned a logD of 0.12. In addition, the IKBα protein levels entry in the series on IKBα was “counteracted the EtOH-induced IKBα decrease”.
The Papp is the rate of passage across a membrane or cell layer, normalised by area and donor concentration. For the compound `C[C@@H](C(=O)O)c1cccc(C(=O)c2ccccc2)c1` [R enantiomer, R-Ketoprofen], the NFkB translocation result in the series on NFkB is “inhibited NFkB translocation to the same extent as KLS”. Moreover, the Papp at 120 min in [7] (Caco-2, K) is 0.579 ± 0.052 ×10⁻⁶ cm/s; in [7] (Caco-2, KLS), 1.19 ± 0.044 ×10⁻⁶ cm/s. In addition, in the series with COX, the “potency as a COX inhibitor” value was “several logs less potent than the S enantiomer”.
Take `C[C@H](C(=O)O)c1cccc(C(=O)c2ccccc2)c1` [S enantiomer, (S)-ketoprofen]: the NFkB translocation result in the series with NFkB was “not”. The Papp at 120 min is 0.576 ± 0.031 ×10⁻⁶ cm/s in series [7] (Caco-2, K) and 1.19 ± 0.026 ×10⁻⁶ cm/s in series [7] (Caco-2, KLS).
